Broadly, the IC50 is the concentration that inhibits the measured activity by half. For orientation: mortality means the percentage killed. A higher mortality goes with fewer survivors.

From US5055472A, “Pyrazolopyrimidine type mevalonolactones” (Nissan Chemical Industries, Ltd., priority 1988, dated 1991) come the findings set out here.

Data set [1] has as its system cholesterol biosynthesis. Description: Test C: Inhibition of cholesterol biosynthesis in vivo. Also noted: species or system Male Sprague-Dawley rats. The settings on record: 0.2 mg/kg, oral administration, rats. The procedure:
Male Sprague-Dawley rats weighing about 150 g were fed normal Purina chow diet and water ad libitum, and exposed to 12 hours light/12 hours dark lighting pattern (2:00 PM-2:00 AM dark) prior to use for in vivo inhibition test of cholesterol biosynthesis. Animals were separated groups consisting of five rats as to be average mean body weight in each groups. Test compounds at dosage of 0.02-0.2 mg/kg body weight (0.4 ml/100 g body weight), were dissolved in water or suspended in 0.5% methyl cellulose and orally administered at 2-3 hours before mid-dark (8:00 PM), while cholesterol biosynthesis reaches to maximum in rats. As control, rats were orally administered only water or vehicle. At 90 minutes after sample administration, rats were injected intraperitoneally with 10 μCi of [2-^14 C]sodium acetate at volume of 0.2 ml per one. 2 Hours later, blood samples were obtained and serum were separated immediately. Total lipids were extracted according to the method of Folch et al. and saponified with EtOH-KOH. Nonsaponifiable lipids were extracted with petroleum ether and radio activity incorporated into nonsaponifiable lipids was counted. Inhibitory activity was indicated as percent decrease of counts in testing groups (DPM/2 ml serum/2 hours) from that in control group.

Data set [2] concerns cholesterol biosynthesis in Hep G2 cells. Description: Test B-1: Inhibition of cholesterol biosynthesis in culture cells (Hep G2). The settings on record: for inhibition at 1 µM: 1.0 × 10^-6 mol/l, Hep G2 cells, read-out: Inhibitory activities at a concentration of 1.0 × 10^-6 mol/l by Test B-1 (Relative activities); for Relative activities by Test B-1: relative to CS-514 = 1 (Test B-1). It is filed as cell-based. The procedure:
Hep G2 cells at over 5th passage were seeded to 12 well plates and incubated with Dulbecco's modified Eagle (DME) medium containing 10% of fetal bovine serum (FBS) at 37° C., 5% CO2 until cells were confluent for about 7 days. Cells were exposed to the DME medium contaiing 5% of lipoprotein deficient serum (LpDS) prepared by ultracentrifugation method for over 24 hours. Medium was changed to 0.5 ml of fresh 5% LpDS containing DME before assay and 10 μl of test compound solution dissolved in water or DMSO were added. 0.2 μCi of [2-^14 C]sodium acetate (20 μl ) was added at 0 hr(B-1) or 4 hrs(B-2) after addition of compounds. After 4 hrs further incubation with [2-^14 C]sodium acetate, medium was removed and cells were washed with phosphate buffered saline (PBS) chilled at 4° C. Cells were scraped with rubber policeman and collected to tubes with PBS and digested with 0.2 ml of 0.5 N KOH at 37° C. Aliquot of digestion was used for protein analysis and remaining was saponified with 1 ml of 15% EtOH-KOH at 75° C. for 1 hour. Nonsaponifiable lipids were extracted with petroleum ether and ^14 C radioactivity was counted. Counts were revised by cell protein and indicated with DPM/mg protein. Inhibitory activity of compounds was indicated with IC50. With respect to the compounds of the present invention, the inhibitory activities against the cholesterol biosynthesis in which HMG-CoA reductase serves as a rate limiting enzyme, were measured by the above Test A and B.

The subject of data set [3] is cholesterol biosynthesis. Description: Test A: Inhibition of cholesterol biosynthesis from acetate in vitro. The note with it: relative to CS-514 = 1 (Test A). It is filed as biochemical, male Wistar rat. As to the method:
Enzyme solution was prepared from liver of male Wistar rat billialy connulated and discharged bile for over 24 hours. Liver was cut out at mid-dark and microsome and supernatant fraction which was precipitable with 40-80% of solution of ammonium sulfate (sup fraction) were prepared from liver homogenate according to the modified method of Knauss et. al.; Kuroda, M., et. al., Biochim. Biophys. Acta, 489, 119 (1977). For assay of cholesterol biosynthesis, microsome (0.1 mg protein) and sup fraction (1.0 mg protein) were incubated for 2 hours at 37° C. in 200 μl of the reaction mixture containing ATP; 1 mM, Glutathione; 6 mM, Glucose-1-phosphate; 10 mM, NAD; 0.25 mM, NADP; 0.25 mM, CoA; 0.04 mM and 0.2 mM [2-^14 C]sodium acetate (0.2 μCi) with 4 μl of test compound solution dissolved in water or dimethyl sulfoxide. To stop reaction and saponify, 1 ml of 15% EtOH-KOH was added to the reactions and heated at 75° C. for 1 hour. Nonsaponifiable, lipids were extracted with petroleum ether and incorporated ^14 C radioactivity was counted. Inhibitory activity of compounds was indicated with IC50.
With respect to the compounds of the present invention, the inhibitory activities against the cholesterol biosynthesis in which HMG-CoA reductase serves as a rate limiting enzyme, were measured by the above Test A and B. The results are shown in Tables 2, 3-1 and 3-2.
The relative activities of the compounds of the present invention based on the activities of CS-514 by Test A being evaluated to be 1, are shown in Table 2.

A further data set can be described thus: Test D: Acute toxicity. The settings on record: mouse, in vivo, 1000 mg/kg; 1,000 mg/kg oral, 0.5% CMC suspension, ICR male mice, after seven days. The procedure:
A 0.5% CMC suspension of a test compound was orally administered to ICR male mice (group of three mice). The acute toxicity was determined based on the mortality after seven days. With compound I 5-4 and I-5-6 of the present ivnention, the mortality was 0% even when they were orally administered in an amount of 1,000 mg/kg, respectively.

Regarding `CCC(C)C(=O)OC1CC(O)C=C2C=CC(C)C(CCC(O)CC(O)CC(=O)O)C21` (stereo not shown) [CS-514, reference compound], the “percent decrease of counts relative to control group” value in the data set on cholesterol biosynthesis [1] came to 34%. Besides, the IC50 in data set [2] (Homo sapiens, HepG2, Test B-1, Hep G2 cells, [2-14C]sodium acetate added at 0 hr, read-out: IC50 in Test B1) was found to be 3.66 µM.
For the molecule `CCOC(=O)CC(O)CC(O)/C=C/c1c(C(C)C)nc2cc(C)nn2c1-c1ccc(F)cc1` (stereo not shown) [Compound I-1-1, Ethyl (E)-7-[7'-(4"-fluorophenyl)-2'-methyl-5'-(1"-methylethyl)pyrazolo[1,5-a]pyrimidin-6'-yl]-3,5-dihydroxyhept-6-enoate], in data set [2] (Homo sapiens, HepG2), the inhibition at 1 µM is 67.3%. Moreover, the “Relative activities by Test B-1” value in data set [2] is recorded as 17.8.
Take `CCOC(=O)CC(O)CC(O)/C=C/c1c(C(C)C)nc2cc(-c3ccccc3)nn2c1-c1ccc(F)cc1` (stereo not shown) [Compound I-1-3]: the inhibition at 1 µM in data set [2] (Homo sapiens, HepG2) was found to be 66.1%. Moreover, the “Relative activities by Test B-1” value in data set [2] is reported as 29.5.
In the case of `Cc1cc2nc(C(C)C)c(/C=C/C(O)CC(O)CC(=O)O)c(-c3ccc(F)cc3)n2n1` (stereo not shown) [Compound I-5-1, Sodium (E)-7-[7'-(4"-fluorophenyl)-2'-methyl-5'-(1"-methylethyl)pyrazolo[1,5-a]pyrimidin-6'-yl]-3,5-dihydroxyhept-6-enoate], in the data set on cholesterol biosynthesis [1], the “percent decrease of counts relative to control group” value stood at 50%. The inhibition at 1 µM in data set [2] (Homo sapiens, HepG2) was determined as 53.9%. Moreover, the “Relative activities by Test A” value with cholesterol biosynthesis [3] is listed as 0.64.
For `CC(C)c1nc2cc(C(C)(C)C)nn2c(-c2ccc(F)cc2)c1/C=C/C(O)CC(O)CC(=O)O` (stereo not shown) [Compound I-5-2], the inhibition at 1 µM in data set [2] (Homo sapiens, HepG2) was 44.6%. Besides, the “Relative activities by Test A” value with cholesterol biosynthesis [3] is reported as 0.09.
Take `CC(C)c1nc2cc(-c3ccccc3)nn2c(-c2ccc(F)cc2)c1/C=C/C(O)CC(O)CC(=O)O` (stereo not shown) [Compound I-5-3]: in data set [2] (Homo sapiens, HepG2), the inhibition at 1 µM came out at 66.3%. In addition, the “Relative activities by Test B-1” value in data set [2] is given as 26.0. Also, the “Relative activities by Test A” value with cholesterol biosynthesis [3] came to 0.27.
`Cc1cc2nc(C3CC3)c(/C=C/C(O)CC(O)CC(=O)O)c(-c3ccc(F)cc3)n2n1` (stereo not shown) [Compound I-5-4] showed a mortality at 168 h in “Test D: Acute toxicity” of 0%. Further, the inhibition at 1 µM in data set [2] (Homo sapiens, HepG2) turned out to be 57.1%. In addition, in the data set on cholesterol biosynthesis [3], the “Relative activities by Test A” value stood at 0.39.
With `Cc1nn2c(-c3ccc(F)cc3)c(/C=C/C(O)CC(O)CC(=O)O)c(C3CC3)nc2c1C` (stereo not shown) [Compound I-5-5], the inhibition at 1 µM in data set [2] (Homo sapiens, HepG2) is 55.3%. In addition, the “Relative activities by Test A” value in the data set on cholesterol biosynthesis [3] turned out to be 0.29.
For `Cc1nn2c(-c3ccc(F)cc3)c(/C=C/C(O)CC(O)CC(=O)O)c(C3CC3)nc2c1-c1ccccc1` (stereo not shown) [Compound I-5-6], the mortality at 168 h in “Test D: Acute toxicity” came out at 0%. For the same molecule, in data set [2] (Homo sapiens, HepG2), the inhibition at 1 µM came out at 58%. Besides, in the data set on cholesterol biosynthesis [3], the “Relative activities by Test A” value was 0.75.
With `CC(C)c1nc2cc(-c3ccco3)nn2c(-c2ccc(F)cc2)c1/C=C/C(O)CC(O)CC(=O)O` (stereo not shown) [Compound I-5-7], the “Relative activities by Test A” value in the data set with cholesterol biosynthesis [3] was 0.20.
Take `CC(C)c1cc2nc(C3CC3)c(/C=C/C(O)CC(O)CC(=O)O)c(-c3ccc(F)cc3)n2n1` (stereo not shown) [Compound I-5-8]: in the data set on cholesterol biosynthesis [3], the “Relative activities by Test A” value is 0.09.
Still for that read-out and setting: the same measure for `CC(C)c1nc2c3c(nn2c(-c2ccc(F)cc2)c1/C=C/C(O)CC(O)CC(=O)O)CCCC3` (stereo not shown) [Compound I-5-9]: 0.13.
